According to patent publication US20230092679A1, “MCL-1 INHIBITOR ANTIBODY-DRUG CONJUGATES AND METHODS OF USE” (NOVARTIS AG, priority 2019, published 2023):

Key:
Format in all cases: cell-based
KMS-20 = assay: CellTiter-Glo proliferation assay, anti-CD48 ADCs (Example 18); conditions: KMS-20, 5 days
Method: (§1) The CD48 MCL-1 antibody drug conjugate CD48-L7-P1, isotype IgG1-L7-P1 ADC, and MCL-1 free payload P1 were tested against four endogenous cancer cell lines. KMS-21 BM (JCRB No. JCRB11185 cultured in RPMI-1640+10% FBS), KMS-20 (JCRB No. JCRB1196 cultured in RPMI-1640+10% FBS), KMS-27 (JCRB No. JCRB1188 cultured in RPMI-1640+10% FBS), and NCI-H929 (ATCC No. CRL-9068 cultured in RPMI-1640+10% FBS+0.05 mM 2-mercaptoethanol).
(§2) The ability of the CD48 MCL-1 antibody drug conjugate CD48-L7-P1, isotype IgG1-L7-P1 ADC, and MCL-1 free payload P1 to inhibit cell proliferation and survival was assessed using the Promega CellTiter-Glo® proliferation assay.
(§3) Cell lines were cultured in media that is optimal for their growth at 5% CO2, 37° C. in a tissue culture incubator. Prior to seeding for the proliferation assay, the cells were split at least 2 days before the assay to ensure optimal growth density. On the day of seeding, suspension cells were harvested. Cell viability and cell density were determined using a cell counter (Vi-Cell XR Cell Viability Analyzer, Beckman Coulter). […] Cells were seeded at a density of 1,000 cells per well in 45 μL of standard growth media. Plates were incubated at 5% CO2, 37° C. overnight in a tissue culture incubator. The next day, free MCL-1 payload (P1), targeting MCL-1 ADC, and non-targeting isotype ADCs were prepared at 10× in standard growth media. The prepared drug treatments were then added to the cells resulting in final concentrations of 0.0005-500 nM and a final volume of 50 μL per well. Each drug concentration was tested in quadruplets. Plates were incubated at 5% CO2, 37° C. for 5 days in a tissue culture incubator, after which cell viability was assessed through the addition of 25 μL of CellTiter Glo® (Promega, cat #G7573), a reagent which lyses cells and measures total adenosine triphosphate (ATP) content. Plates were incubated at room temperature for 10 minutes to stabilize luminescent signals prior to reading using a luminescence reader (EnVision Multilabel Plate Reader, PerkinElmer). To evaluate the effect of the drug treatments, luminescent counts from wells containing untreated cells (100% viability) were used to normalize treated samples. A variable slope model was applied to fit a nonlinear regression curve to the data in GraphPad PRISM version 7.02 software. IC50 and Amax values were extrapolated from the resultant curves.
(§4) The dose response curves of representative cancer cell lines expressing the CD48 target of interest are shown in FIG. 22 (square=CD48-L7-P1, circle IgG-L7-P1, triangle=free MCL1 payload P1).

KMS-21 BM = assay: as above; conditions: 5 days
Method: as §1, §2, §3, §4

KMS-27 = assay: as above; conditions: KMS-27, 5 days
Method: as §1, §2, §3, §4

NCI-H929 = assay: as above; conditions: NCI-H929, 5 days
Method: as §1, §2, §3, §4

21435hx = assay: In vitro ADC activity, AML cell lines, CellTiter-Glo (Example 20); conditions: 5 days
5339hx = assay: as above; conditions: 5 days
5340hx = assay: as above; conditions: 5 days
aml193 = assay: as above; conditions: aml193, 5 days
hl60 = assay: as above; conditions: hl60, 5 days
kg1 = assay: as above; conditions: kg1, 5 days
ko52 = assay: as above; conditions: ko52, 5 days
molm13 = assay: as above; conditions: molm13, 5 days
molm16 = assay: as above; conditions: molm16, 5 days
ociaml3 = assay: as above; conditions: ociaml3, 5 days
ociaml5 = assay: as above; conditions: ociaml5, 5 days
pl21 = assay: as above; conditions: pl21, 5 days
skm1 = assay: as above; conditions: skm1, 5 days

**Q.** Which IC50 (KMS-20; 120 h) does the source give for COc1ccccc1-c1nccc(COc2ccccc2C[C@@H](Oc2ncnc3sc(-c4ccc(F)cc4)c(-c4ccc(OCCN5CCN(C)CC5)c(Cl)c4C)c23)C(=O)O)n1 [P1, (2R)-2-[5-[3-chloro-2-methyl-4-[2-(4-methylpiperazin-1-yl)ethoxy]phenyl]-6-(4-fluorophenyl)thieno[2,3-d]pyrimidin-4-yl]oxy-3-[2-[[2-(2-methoxyphenyl)pyrimidin-4-yl]methoxy]phenyl]propanoic acid] here?
**A.** 4.95 nM

**Q.** What about the Amax (KMS-20; in %) of the same compound?
**A.** 94.34

**Q.** What about the IC50 (KMS-21 BM; 120 h) of the same compound?
**A.** 0.941 nM

**Q.** And the Amax (KMS-21 BM; in %)?
**A.** 85.27

**Q.** What about the IC50 (KMS-27; 120 h) of the same compound?
**A.** 6.98 nM

**Q.** What about the Amax (KMS-27; in %) of the same compound?
**A.** 88.98

**Q.** What about the IC50 (NCI-H929; Homo sapiens, 120 h) of the same compound?
**A.** 2.04 nM

**Q.** And the Amax (NCI-H929; in %)?
**A.** 109.1

**Q.** And the GI50 (21435hx; 120 h)?
**A.** 12 nM

**Q.** And the Amax (21435hx; in % (unit assumed))?
**A.** −91

**Q.** And the GI50 (5339hx; 120 h)?
**A.** 5 nM

**Q.** And the Amax (5339hx; in % (unit assumed))?
**A.** −83

**Q.** What about the GI50 (5340hx; 120 h) of the same compound?
**A.** 1 nM

**Q.** And the Amax (5340hx; in % (unit assumed))?
**A.** −92

**Q.** What about the GI50 (aml193; 120 h) of the same compound?
**A.** 6 nM

**Q.** And the Amax (aml193; in % (unit assumed))?
**A.** −87

**Q.** And the GI50 (hl60; Homo sapiens, HL-60, 120 h)?
**A.** 87 nM

**Q.** And the Amax (hl60; in % (unit assumed))?
**A.** −71

**Q.** What about the GI50 (kg1; Homo sapiens, KG-1, 120 h) of the same compound?
**A.** 861 nM

**Q.** And the Amax (kg1; in % (unit assumed))?
**A.** −69

**Q.** And the GI50 (ko52; 120 h)?
**A.** 500 nM

**Q.** What about the Amax (ko52; in % (unit assumed)) of the same compound?
**A.** −75

**Q.** And the GI50 (molm13; Homo sapiens, MOLM-13, 120 h)?
**A.** 2 nM

**Q.** And the Amax (molm13; in % (unit assumed))?
**A.** −54

**Q.** What about the GI50 (molm16; 120 h) of the same compound?
**A.** 45 nM

**Q.** And the Amax (molm16; in % (unit assumed))?
**A.** −76

**Q.** What about the GI50 (ociaml3; Homo sapiens, OCI-AML-3, 120 h) of the same compound?
**A.** 138 nM

**Q.** What about the Amax (ociaml3; unit assumed) of the same compound?
**A.** 1%

**Q.** What about the GI50 (ociaml5; Homo sapiens, OCI-AML-5, 120 h) of the same compound?
**A.** 265 nM

**Q.** What about the Amax (ociaml5; unit assumed) of the same compound?
**A.** 4%

**Q.** And the GI50 (pl21; PL-21, 120 h)?
**A.** 350 nM

**Q.** And the Amax (pl21; in % (unit assumed))?
**A.** −55

**Q.** What about the GI50 (skm1; Homo sapiens, SKM-1, 120 h) of the same compound?
**A.** 119 nM

**Q.** What about the Amax (skm1; in % (unit assumed)) of the same compound?
**A.** −49
